Tests used:
Type in all cases: in vivo
[1] = system: pigweed, palmer (palmer amaranth, Amaranthus palmeri); test: Test C preemergence, palmer amaranth; settings: 0 is no effect, 100 is complete control
Procedure, shortened: (§1)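 Pre: soil sprayed at seeding. Post: seedlings treated at 1–2 leaves (2–10 cm). Vehicle non-phytotoxic solvent mix with surfactant; loam–sand medium; greenhouse; visual injury read at 10 or 12 days, scale 0–100.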

[2] = system: ragweed (common ragweed, Ambrosia artemisiifolia); test: Test C postemergence, ragweed; settings: for Ragweed plant response rating: visual injury, 0 to 100 scale (0 no effect, 100 complete control); for Plant response rating (0 to 100 scale), Ragweed: 0 is no effect, 100 is complete control
Procedure, shortened: as §1

[3] = system: ryegrass, Italian (Italian ryegrass, Lolium multiflorum); test: Test C postemergence, Italian ryegrass; settings: for Ryegrass, Italian plant response rating: visual injury, 0 to 100 scale (0 no effect, 100 complete control); for Plant response rating (0 to 100 scale), Ryegrass, Italian: 0 is no effect, 100 is complete control
Procedure, shortened: as §1

SMILES | Plant response rating (0 to 100 scale), Pigweed, Palmer ([1]; 31 g ai/ha Preemergence) | Plant response rating (0 to 100 scale), Pigweed, Palmer ([1]; 125 g ai/ha Preemergence) | Ragweed plant response rating ([2]; 31 g ai/ha Postemergence) | Ragweed plant response rating ([2]; 125 g ai/ha Postemergence) | Ryegrass, Italian plant response rating ([3]; 31 g ai/ha Postemergence) | Ryegrass, Italian plant response rating ([3]; 125 g ai/ha Postemergence) | Plant response rating (0 to 100 scale), Ragweed ([2]; 125 g ai/ha Postemergence) | Plant response rating (0 to 100 scale), Ryegrass, Italian ([3]; 125 g ai/ha Postemergence)
Cc1cc(C)c(N2CCC(OC3CC3)C2=O)cc1NS(=O)(=O)C(F)(F)F (single isomer, unassigned) [Compound 29] | 100 | 100 | 60 | 80 | 70 | 100 | – | –
Cc1cc(C)c(N2CCC(OC3CC3)C2=O)cc1NS(=O)(=O)C(F)(F)F (single isomer, unassigned) [Compound 30] | 100 | 100 | 90 | 90 | 90 | 100 | – | –
Cc1cc(C)c(N2CC/C(=N\O)C2=O)cc1NS(=O)(=O)C(F)(F)F [Compound 10, 1,1,1-trifluoro-N-[5-[3-(hydroxyimino)-2-oxo-1-pyrrolidinyl]-2,4-dimethylphenyl]methanesulfonamide] | 50 | 100 | 50 | – | 80 | – | 50 | 80
C=CCO/N=C1\CCN(c2cc(NS(=O)(=O)C(F)(F)F)c(C)cc2C)C1=O [Compound 11] | 70 | 100 | 60 | – | 0 | – | 80 | 30
CCO/N=C1\CCN(c2cc(NS(=O)(=O)C(F)(F)F)c(C)cc2C)C1=O [Compound 12, N-[5-[3-(ethoxyimino)-2-oxo-1-pyrrolidinyl]-2,4-dimethylphenyl]-1,1,1-trifluoromethanesulfonamide] | 100 | 100 | 90 | – | 70 | – | 90 | 80
C#CCO/N=C1\CCN(c2cc(NS(=O)(=O)C(F)(F)F)c(C)cc2C)C1=O [Compound 13, N-[2,4-dimethyl-5-[2-oxo-3-[(2-propyn-1-yloxy)imino]-1-pyrrolidinyl]phenyl]-1,1,1-trifluoromethanesulfonamide] | 100 | 100 | 80 | – | 60 | – | 90 | 60
Cc1cc(C)c(N2CCC(O)C2=O)cc1NS(=O)(=O)C(F)(F)F (stereo not drawn) [Compound 14] | 90 | 100 | 60 | – | 60 | – | 80 | 100
COC(=O)N(c1cc(N2CCC(OC3CC3)C2=O)c(C)cc1C)S(=O)(=O)C(F)(F)F (stereo not drawn) [Compound 16] | 0 | 0 | 80 | – | 0 | – | 90 | 0
CC(=O)N(c1cc(N2CCC(OC3CC3)C2=O)c(C)cc1C)S(=O)(=O)C(F)(F)F (stereo not drawn) [Compound 17] | 80 | 100 | 70 | – | 60 | – | 90 | 90
Cc1cc(C)c(N(C(=O)OC(C)C)S(=O)(=O)C(F)(F)F)cc1N1CCC(OC2CC2)C1=O (stereo not drawn) [Compound 18] | 0 | 20 | 0 | – | 0 | – | 50 | 0
CCOC(=O)N(c1cc(N2CCC(OC3CC3)C2=O)c(C)cc1C)S(=O)(=O)C(F)(F)F (stereo not drawn) [Compound 19] | 20 | 60 | 60 | – | 0 | – | 90 | 50
CCCC(=O)OCN(c1cc(N2CCC(OC3CC3)C2=O)c(C)cc1C)S(=O)(=O)C(F)(F)F (stereo not drawn) [Compound 20] | 90 | 100 | 80 | – | 60 | – | 90 | 100
Cc1cc(C)c(N(C(=O)OCC(C)C)S(=O)(=O)C(F)(F)F)cc1N1CCC(OC2CC2)C1=O (stereo not drawn) [Compound 21] | 100 | 100 | 80 | – | 50 | – | 90 | 100
Cc1cc(C)c(N2CCC(OCC3CC3)C2=O)cc1NS(=O)(=O)C(F)(F)F (stereo not drawn) [Compound 22] | 100 | 100 | 60 | – | 70 | – | 80 | 80
Cc1c(N2CCC(OC3CC3)C2=O)cc(N(COC(=O)C(C)(C)C)S(=O)(=O)C(F)(F)F)c(C)c1F (stereo not drawn) [Compound 23] | 30 | 100 | 90 | – | 50 | – | 90 | 100
Cc1c(NS(=O)(=O)C(F)(F)F)cc(N2CCC(OC3CCC3)C2=O)c(C)c1F (stereo not drawn) [Compound 25] | 100 | 100 | 60 | 80 | 20 | 70 | – | –
Cc1c(NS(=O)(=O)C(F)(F)F)cc(N2CCC(OC3CC3)C2=O)c(C)c1F (stereo not drawn) [Compound 26] | 100 | 100 | 60 | 80 | 60 | 100 | – | –
Cc1c(N2CCC(OC3CCC3)C2=O)cc(N(COC(=O)C(C)(C)C)S(=O)(=O)C(F)(F)F)c(C)c1F (stereo not drawn) [Compound 28] | 30 | 80 | 80 | 80 | 40 | 40 | – | –
Cc1cc(C)c(N2CCC(OC3COC3)C2=O)cc1NS(=O)(=O)C(F)(F)F (stereo not drawn) [Compound 34] | 100 | 100 | 90 | 90 | 40 | 90 | – | –
Cc1c(NS(=O)(=O)C(F)(F)F)cc(N2CCCC(OC3CC3)C2=O)c(C)c1F (stereo not drawn) [Compound 35] | 100 | 100 | 60 | 90 | 50 | 60 | – | –
Cc1c(NS(=O)(=O)C(F)(F)F)cc(N2CCCC(OC3CCC3)C2=O)c(C)c1F (stereo not drawn) [Compound 36] | 90 | 100 | 40 | 90 | 0 | 40 | – | –
Cc1c(N2CCCC(OC3CC3)C2=O)cc(N(COC(=O)C(C)(C)C)S(=O)(=O)C(F)(F)F)c(C)c1F (stereo not drawn) [Compound 37] | 50 | 90 | 60 | 90 | 0 | 60 | – | –
CC(=O)N(c1cc(N2CCC(OC3CC3)C2=O)c(C)cc1Cl)S(=O)(=O)C(F)(F)F (stereo not drawn) [Compound 38] | 90 | 100 | 80 | 90 | 30 | 70 | – | –
COC(=O)N(c1cc(N2CCC(OC3CC3)C2=O)c(C)cc1Cl)S(=O)(=O)C(F)(F)F (stereo not drawn) [Compound 40] | 80 | 100 | 60 | 80 | 60 | 80 | – | –
Cc1cc(C)c(N2CCC(OCC3CC3(F)F)C2=O)cc1NS(=O)(=O)C(F)(F)F (stereo not drawn) [Compound 41] | 100 | 100 | 50 | 70 | 30 | 100 | – | –
Cc1cc(C)c(N2CCC(OCC3CCCO3)C2=O)cc1NS(=O)(=O)C(F)(F)F (stereo not drawn) [Compound 42] | 80 | 100 | 40 | 90 | 20 | 70 | – | –
Cc1cc(C)c(N2CCC(OCC3CCC3)C2=O)cc1NS(=O)(=O)C(F)(F)F (stereo not drawn) [Compound 43] | 70 | 100 | 50 | 90 | 30 | 70 | – | –
Cc1c(NS(=O)(=O)C(F)(F)F)cc(N2CCC(OC3CCC3)C2=O)c(C)c1C (stereo not drawn) [Compound 45] | 100 | 100 | 50 | 80 | 0 | 50 | – | –
Cc1c(NS(=O)(=O)C(F)(F)F)cc(N2CCC(OC3CC3)C2=O)c(C)c1C (stereo not drawn) [Compound 47] | 100 | 100 | 60 | 80 | 50 | 90 | – | –

From patent publication US20240158348A1, “HERBICIDAL CYCLIC AMIDES N-SUBSTITUTED WITH A HALOALKYLSULFONYLANILIDE GROUP” (FMC Corporation, priority 2021, published 2024)
